{
  "source": "paper PMC10298982",
  "about": "“Stability Characterization of the Novel Anti-Cancer HM-10/10 HDL-Mimetic Peptide” (International Journal of Molecular Sciences, 2023)",
  "key": {"[1]": {"assay": "Metabolic stability in cryopreserved CD-1 mouse hepatocytes", "format": "in vitro ADME", "details": "CD-1 mouse hepatocytes 0.5 million cells/mL; for CLint scaled: mouse, hepatocytes, 2 μM"}, "CYP1A2": {"system": "CYP1A2", "assay": "CYP1A2 induction (enzyme activity) in single-donor human hepatocytes", "format": "in vitro ADME", "details": "for Fold Increase (Enzyme Activity) Mean: mean of three lots", "experimental": "The transport medium was replaced with 200 μL of warm (37 °C) incubation medium (InVitroGRO HI, BioIVT Catalog No. Z99009) and the plate was placed in a humidified 5% carbon dioxide incubator at 37 °C for 24 h.\nIn addition, test article vehicle (PBS) was added to warm (37°C) InVitroGRO HI Medium in a 5:95 (v:v) ratio. […] The plates were removed from the incubator and the hepatocytes were prepared for the induction assay by replacing the cell culture medium with medium containing either the test article, a control inducer, or vehicle control (200 µL per well). The hepatocyte plates were returned to the cell culture incubator and incubated for 24 h.\nOn Day 3, induction was repeated following the same steps as described above for the previous day, and plates were returned to the cell culture incubator for an additional 24 h.\nAfter aliquots were taken to measure test article stability, all the remaining medium from each well in the hepatocyte plate was removed, all wells were washed once using 200 μL of blank assay buffer, and then 100 μL of the 1000-fold diluted substrate solutions were added to the appropriate wells. The assay plate was returned to the humidified 5% carbon dioxide incubator at 37 °C for 1 h incubation.\nAt the end of the incubation time, 100 μL of mRNA lysis buffer was added to each well to stop the reaction. Fifty microliters of this reaction mixture were transferred into a new plate and quenched with 200 μL of ice-cold acetonitrile containing a CYP-specific stable labeled internal standard (250 ng/mL acetaminophen-d4, 250 ng/mL hydroxybupropion-d6, or 250 ng/mL hydroxytestosterone-d3). After removal of the aliquots from the plate for enzyme activity determination, the assay plates were sealed and stored in a −70 °C freezer until use for RT-PCR, mRNA analysis.\nFor the induction assay samples, an aliquot (50 µL) of the supernatant was transferred to a new plate and diluted with 100 µL Milli-Q water. For the test article stability samples, an aliquot (50 µL) of the supernatant was transferred to a new plate and diluted with 60 µL 0.1% formic acid in Milli-Q water. These samples for the enzyme activity assay and article stability test were refrigerated for storage until analysis. […]\nHM1010: Induction Potential of Cytochrome P450 Enzymes\n(CYP1A2, CYP2B6 and CYP3A4) Using Human Cryopreserved Hepatocytes\nTesting Facility Study No.\nThe purpose of this in-vitro study was to determine the induction potential of HM1010 on human\ncytochrome P450 (CYP) isoenzyme (1A2, 2B6 and 3A4) activity. The study design is\nMatrix: Inducible cryopreserved human hepatocytes three single-donor lots\nAssay Buffer: InVitroGRO KHB\nSubstrates: Phenacetin (1A2), Bu propion (2B6), and Testosterone (3A4)\nAssay conditions: 48 hours at 37°C in humidified 5% carbon dioxide incubator\nAnalysis: LC-MS/MS (enzyme activity) and mRNA analysis"}, "[2]": {"assay": "Metabolic stability in cryopreserved beagle dog hepatocytes", "format": "in vitro ADME", "details": "Beagle dog hepatocytes 0.5 million cells/mL; for CLint scaled: dog, hepatocytes, 2 μM"}, "[3]": {"assay": "Protein binding in CD-1 mouse plasma (ultracentrifugation)", "details": "CD-1, mouse, plasma (K2EDTA)"}, "[4]": {"system": "CD-1 mouse plasma proteins", "assay": "Protein binding in CD-1 mouse plasma (ultracentrifugation)", "details": "CD-1 mouse plasma (K2EDTA); 2 μM; 2.5 h at 37 °C"}, "[5]": {"assay": "Metabolic stability in CD-1 mouse liver microsomes", "format": "in vitro ADME"}, "[6]": {"assay": "Metabolic stability in cryopreserved cynomolgus monkey hepatocytes", "format": "in vitro ADME", "details": "Cynomolgus monkey hepatocytes 0.5 million cells/mL"}, "in vitro": {"assay": "in vitro", "details": "cynomolgus monkey, plasma, pH 7.4", "procedure": "Samples were tested at 2 μM.\nThe supernatant was removed and incubated at 37 °C for at least 10 min before use. The pH of each matrix was checked and adjusted to pH 7.4 using 10% phosphoric acid or 1 N sodium hydroxide as necessary.\nTest and control article stock solutions were spiked (1.5 µL) into matrix (0.749 mL) to a final assay concentration of 2 µM and mixed. […] These tubes were sealed and incubated at 37 °C with shaking.\nThe quenched samples were mixed briefly by vortexing and stored in a −20 °C freezer.\nSample plates were stored refrigerated until analysis.\nThe column was set to a temperature of 55 °C. […] The instrument was equipped with an electrospray ionization source (500 °C) operated in positive-ion mode.\nPeak area ratios for IS-normalized test article and control article counts were used to calculate the percent remaining relative to the time zero (T0) value. As appropriate, results were plotted and further analyzed to calculate half-life (T1/2) values.\nMean peak ratios were used to calculate the percent remaining relative to the T0 value: % Remaining at Timex = (mean peak area ratio Tx/mean peak ratio T0) × 100."}, "[7]": {"assay": "Protein binding in cynomolgus monkey plasma (ultracentrifugation)", "details": "plasma (K2EDTA), pH 7.4"}, "[8]": {"system": "cynomolgus monkey plasma proteins", "assay": "Protein binding in cynomolgus monkey plasma (ultracentrifugation)", "details": "Cynomolgus monkey plasma (K2EDTA); 2 μM; 2.5 h at 37 °C"}, "[9]": {"assay": "Metabolic stability in cynomolgus monkey liver microsomes", "format": "in vitro ADME", "details": "for CLint scaled: cynomolgus monkey, microsomes, Cynomolgus monkey liver microsomes 0.5 mg protein/mL, 2 μM"}, "[10]": {"assay": "Metabolic stability in cryopreserved Sprague-Dawley rat hepatocytes", "format": "in vitro ADME", "details": "Sprague-Dawley rat hepatocytes 0.5 million cells/mL; for CLint scaled: rat, hepatocytes, 2 μM"}, "CYP3A4": {"target": "CYP3A4 (Homo sapiens, UniProt P08684)", "sequence (P08684 whole entry)": "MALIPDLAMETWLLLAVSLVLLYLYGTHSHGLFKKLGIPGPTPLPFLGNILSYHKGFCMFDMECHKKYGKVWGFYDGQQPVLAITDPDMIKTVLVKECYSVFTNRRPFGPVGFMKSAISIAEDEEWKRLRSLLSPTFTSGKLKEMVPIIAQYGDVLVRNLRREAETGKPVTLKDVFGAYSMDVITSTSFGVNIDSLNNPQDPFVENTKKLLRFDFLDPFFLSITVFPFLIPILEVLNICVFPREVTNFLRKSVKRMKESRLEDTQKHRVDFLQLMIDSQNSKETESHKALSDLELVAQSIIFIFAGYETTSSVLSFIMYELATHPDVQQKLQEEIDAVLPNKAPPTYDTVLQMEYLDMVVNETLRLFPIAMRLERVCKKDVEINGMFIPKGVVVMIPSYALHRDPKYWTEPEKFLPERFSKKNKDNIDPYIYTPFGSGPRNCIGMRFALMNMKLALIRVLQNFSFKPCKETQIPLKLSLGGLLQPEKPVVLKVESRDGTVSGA", "assay": "CYP450 time-dependent inhibition, CYP3A4 (midazolam and testosterone substrates), pooled human liver microsomes", "format": "in vitro ADME"}, "[11]": {"details": "cryopreserved hepatocytes, read-out: % Remaining at 30 min"}, "[12]": {"details": "read-out: CLint (L/hr/kg) (converted)"}},
  "note": "Several values for one entry are separate records, joined by “and”; a condition that tells them apart may be missing. Equal values may be shown once. Ends that are not written are not given here.",
  "data": [
    {"sequence": "LRKLRKRLLRLVGRQLEEFL [HM-10/10, LRKLRKRLLRLVGRQLEEFL]", "values": [
      {"measurement": "half-life at 2 µM", "setting": "[1]; cryopreserved hepatocytes", "value": "< 15", "unit": "min"},
      {"measurement": "remaining at 0.5 h, 2 µM", "setting": "[1]; [11]", "value": 0.7, "unit": "%"},
      {"measurement": "CLint scaled", "setting": "[1]; read-out: CLint (L/hr/kg)", "value": "> 65.5", "unit": "L/h/kg"},
      {"measurement": "CLint scaled", "setting": "[1]; read-out: CLint (mL/min/kg)", "value": "> 65.4", "unit": "L/h/kg"},
      {"measurement": "Fold Increase (Enzyme Activity) Lot HH1086", "setting": "CYP1A2; 2 µM", "value": 0.682, "unit": "fold"},
      {"measurement": "Fold Increase (Enzyme Activity) Lot HH1142", "setting": "CYP1A2; 2 µM", "value": 1.33, "unit": "fold"},
      {"measurement": "Fold Increase (Enzyme Activity) Lot HH1144", "setting": "CYP1A2; 2 µM", "value": 1.73, "unit": "fold"},
      {"measurement": "Fold Increase (Enzyme Activity) Mean", "setting": "CYP1A2; 2 µM", "value": 1.25, "unit": "fold"},
      {"measurement": "Fold Increase (Enzyme Activity) Lot HH1086", "setting": "CYP1A2; 10 µM", "value": 1.88, "unit": "fold"},
      {"measurement": "Fold Increase (Enzyme Activity) Lot HH1142", "setting": "CYP1A2; 10 µM", "value": 5.19, "unit": "fold"},
      {"measurement": "Fold Increase (Enzyme Activity) Lot HH1144", "setting": "CYP1A2; 10 µM", "value": 3.32, "unit": "fold"},
      {"measurement": "Fold Increase (Enzyme Activity) Mean", "setting": "CYP1A2; 10 µM", "value": 3.46, "unit": "fold"},
      {"measurement": "Fold Increase (Enzyme Activity) Lot HH1086", "setting": "CYP1A2; 25 µM", "value": 2.46, "unit": "fold"},
      {"measurement": "Fold Increase (Enzyme Activity) Lot HH1142", "setting": "CYP1A2; 25 µM", "value": 5.98, "unit": "fold"},
      {"measurement": "Fold Increase (Enzyme Activity) Lot HH1144", "setting": "CYP1A2; 25 µM", "value": 3.65, "unit": "fold"},
      {"measurement": "Fold Increase (Enzyme Activity) Mean", "setting": "CYP1A2; 25 µM", "value": 4.03, "unit": "fold"},
      {"measurement": "half-life at 2 µM", "setting": "[2]; cryopreserved hepatocytes", "value": 10.7, "unit": "min"},
      {"measurement": "remaining at 0.5 h, 2 µM", "setting": "[2]; [11]", "value": 16, "unit": "%"},
      {"measurement": "CLint scaled", "setting": "[2]; [12]", "value": 42, "unit": "L/h/kg"},
      {"measurement": "CLint scaled", "setting": "[2]; read-out: CLint (mL/min/kg)", "value": 41.9, "unit": "L/h/kg"},
      {"measurement": "remaining at 2.5 h, 2 µM", "setting": "[3]; pH 7.4", "value": 14.6, "unit": "%"},
      {"measurement": "fraction unbound at 2.5 h, 2 µM", "setting": "[3]; pH 7.4, Fu (Unbound Fraction) Mean ± SD, CD-1 mouse plasma (K2EDTA), 2 μM, 2.5 h at 37 °C", "value": "0.847 ± 0.246"},
      {"measurement": "% Protein Bound Mean ± SD", "setting": "[4]", "value": "15.3% and 15.3 ± 24.6%"},
      {"measurement": "% Protein Free Mean ± SD", "setting": "[4]", "value": "84.7 ± 24.6", "unit": "%"},
      {"measurement": "CLint scaled", "setting": "[5]; CD-1 mouse liver microsomes 0.5 mg protein/mL, 2 μM", "value": 170, "unit": "mL/min/kg"},
      {"measurement": "half-life at 2 µM", "setting": "[5]; pooled liver microsomes, pH 7.4, CD-1 mouse liver microsomes 0.5 mg protein/mL", "value": 32, "unit": "min"},
      {"measurement": "remaining at 2 h, 2 µM", "setting": "[5]; pooled liver microsomes, pH 7.4, CD-1 mouse liver microsomes 0.5 mg protein/mL, read-out: % Remaining at 120 min", "value": 0.8, "unit": "%"},
      {"measurement": "CLint scaled", "setting": "[6]; 2 μM", "value": 465, "unit": "mL/min/kg"},
      {"measurement": "half-life at 2 µM", "setting": "[6]; cryopreserved hepatocytes", "value": 12.1, "unit": "min"},
      {"measurement": "remaining at 0.5 h, 2 µM", "setting": "[6]; [11]", "value": 18.5, "unit": "%"},
      {"measurement": "half-life at 2 µM", "setting": "in vitro", "value": 52.7, "unit": "min"},
      {"measurement": "remaining at 2 h, 2 µM", "setting": "in vitro", "value": 21.9, "unit": "%"},
      {"measurement": "fraction unbound at 2.5 h, 2 µM", "setting": "[7]; cynomolgus monkey", "value": "0.736 ± 0.216"},
      {"measurement": "remaining at 2.5 h, 2 µM", "setting": "[7]; monkey", "value": 25.9, "unit": "%"},
      {"measurement": "% Protein Bound Mean ± SD", "setting": "[8]", "value": "26.4 ± 21.6", "unit": "%"},
      {"measurement": "% Protein Free Mean ± SD", "setting": "[8]", "value": "73.6 ± 21.6", "unit": "%"},
      {"measurement": "CLint scaled", "setting": "[9]; [12]", "value": 5.15, "unit": "L/h/kg"},
      {"measurement": "CLint scaled", "setting": "[9]; read-out: CLint (mL/min/kg)", "value": 5.15, "unit": "L/h/kg"},
      {"measurement": "half-life at 2 µM", "setting": "[9]; pooled liver microsomes, pH 7.4, Cynomolgus monkey liver microsomes 0.5 mg protein/mL", "value": 21.8, "unit": "min"},
      {"measurement": "remaining at 2 h, 2 µM", "setting": "[9]; pooled liver microsomes, pH 7.4, Cynomolgus monkey liver microsomes 0.5 mg protein/mL, read-out: % Remaining at 120 min", "value": 0.8, "unit": "%"},
      {"measurement": "half-life at 2 µM", "setting": "[10]; cryopreserved hepatocytes", "value": 5.81, "unit": "min"},
      {"measurement": "remaining at 0.5 h, 2 µM", "setting": "[10]; [11]", "value": 1, "unit": "%"},
      {"measurement": "CLint scaled", "setting": "[10]; [12]", "value": 75.4, "unit": "L/h/kg"},
      {"measurement": "CLint scaled", "setting": "[10]; read-out: CLint (mL/min/kg)", "value": 75.6, "unit": "L/h/kg"},
      {"measurement": "% Inhibition at 50 µM No PI + NADPH", "setting": "CYP3A4; Midazolam (3A4)", "value": 6.6, "unit": "%"},
      {"measurement": "% Inhibition at 50 µM No PI − NADPH", "setting": "CYP3A4; Midazolam (3A4)", "value": 19.2, "unit": "%"},
      {"measurement": "% Inhibition at 50 µM PI + NADPH", "setting": "CYP3A4; Midazolam (3A4)", "value": 13.9, "unit": "%"},
      {"measurement": "% Inhibition at 50 µM PI − NADPH", "setting": "CYP3A4; Midazolam (3A4)", "value": 29.5, "unit": "%"},
      {"measurement": "% Inhibition at 50 µM No PI + NADPH", "setting": "CYP3A4; Testosterone (3A4)", "value": 6.9, "unit": "%"},
      {"measurement": "% Inhibition at 50 µM No PI − NADPH", "setting": "CYP3A4; Testosterone (3A4)", "value": "−0.7", "unit": "%"},
      {"measurement": "% Inhibition at 50 µM PI + NADPH", "setting": "CYP3A4; Testosterone (3A4)", "value": 11.3, "unit": "%"},
      {"measurement": "% Inhibition at 50 µM PI − NADPH", "setting": "CYP3A4; Testosterone (3A4)", "value": 32.2, "unit": "%"}
    ]}
  ]
}
